# Residue numbers refer to the chain shown, from its start. Numbers in names are those of the source.
# B1: Thermotoga maritima Rad50^NBD (residues 1-190 and 686-852 joined by the linker GGAGGAGG) (domain or fragment)
# chain: MRPERLTVRNFLGLKNVDIEFQSGITVVEGPNGAGKSSLFEAISFALFGNGIRYPNSYDYVNRNAVDGTARLVFQFERGGKRYEIIREINALQRKHNAKLSEILENGKKAAIAAKPTSVKQEVEKILGIEHRTFIRTVFLPQGEIDKLLISPPSEITEIISDVFQSKETLEKLEKLLKEKMKKLENEISSGGAGGAGGSLEKKLKEMSDEYNNLDLLRKYLFDKSNFSRYFTGRVLEAVLKRTKAYLDILTNGRFDIDFDDEKGGFIIKDWGIERPARGLSGGERALISISLAMSLAEVASGRLDAFFIDEGFSSLDTENKEKIASVLKELERLNKVIVFITHDREFSEAFDRKLRITGGVVVNE
# B2: Thermotoga maritima Mre11 S110C (enzyme, UniProt Q9X1X0 7-385, looked up)
# chain: MKILHTSDWHLGVTSWTSSRPVDRREELKKALDKVVEEAEKREVDLILLTGDLLHSRNNPSVVALHDLLDYLKRMMRTAPVVVLPGNHDWKGLKLFGNFVTSICSDITFVMSFEPVDVEAKRGQKVRILPFPYPDESEALRKNEGDFRFFLESRLNKLYEEALKKEDFAIFMGHFTVEGLAGYAGIEQGREIIINRALIPSVVDYAALGHIHSFREIQKQPLTIYPGSLIRIDFGEEADEKGAVFVELKRGEPPRYERIDASPLPLKTLYYKKIDTSALKSIRDFCRNFPGYVRVVYEEDSGILPDLMGEIDNLVKIERKSRREIEEVLRESPEEFKEELDKLDYFELFKEYLKKREENHEKLLKILDELLDEVKKSEA
# B3: Thermotoga maritima Mre11 (residues L7M-385) (enzyme, UniProt Q9X1X0 7-385, looked up)
# chain: B2 chain with C104S
# How the values were obtained:
# [1] = biological target: T1, TmMre11:Rad50^NBD (TmMR^NBD catalytic head) (Thermotoga maritima, UniProt Q9X1X1, DEL191-685); assay: SPR and EMSA, nucleotide-stimulated DNA binding; assay type: biochemical; conditions: dsDNA 50mer, hairpin DNA
# [2] = biological target: T1, TmMre11:Rad50^NBD (TmMR^NBD catalytic head); assay: ATPase activity; assay type: biochemical
# [3] = biological target: TmMre11:Rad50^NBD (TmMR^NBD catalytic head) (Thermotoga maritima, UniProt Q9X1X1, DEL191-685/D804C/H830C); assay: ATP-induced disulfide bond formation between Rad50 NBDs; assay type: binding; conditions: Cu2+
# [4] = biological target: TmMre11:Rad50^NBD (TmMR^NBD catalytic head) (Thermotoga maritima, UniProt Q9X1X1, DEL191-685, form not given); assay: reduced BMOE crosslinking of Mre11 dimer, SDS PAGE; assay type: binding; conditions: nucleotide binds Rad50; read-out at Mre11 dimer interface
# [5] = biological target: TmMre11:Rad50^NBD (TmMR^NBD catalytic head) (Thermotoga maritima, UniProt Q9X1X1, N64C/DEL191-685/I760C); assay: ATP-dependent BMOE crosslinking of Rad50 NBDs, SDS PAGE; assay type: binding
# [6] = biological target: TmMre11:Rad50^NBD (TmMR^NBD catalytic head) (Thermotoga maritima, UniProt Q9X1X1, DEL191-685/D804C/H830C, form not given); assay: ATP-induced disulfide bond formation between Rad50 NBDs; assay type: binding; conditions: Cu2+
# [7] = biological target: T1, TmMre11:Rad50^NBD (TmMR^NBD catalytic head); assay: SAXS, compaction of catalytic head; assay type: binding; conditions: 50 mM Tris pH 7.7, 100 mM NaCl, 5 mM MnCl2, 10 mM MgCl2
# [8] = biological target: B3; assay: crystal structure
# [9] = biological target: the molecule itself; assay: co-purification
# [10] = biological target: the molecule itself; assay: crystal structure
# T1 sequence (Q9X1X0 7-385 L7M, one chain of several): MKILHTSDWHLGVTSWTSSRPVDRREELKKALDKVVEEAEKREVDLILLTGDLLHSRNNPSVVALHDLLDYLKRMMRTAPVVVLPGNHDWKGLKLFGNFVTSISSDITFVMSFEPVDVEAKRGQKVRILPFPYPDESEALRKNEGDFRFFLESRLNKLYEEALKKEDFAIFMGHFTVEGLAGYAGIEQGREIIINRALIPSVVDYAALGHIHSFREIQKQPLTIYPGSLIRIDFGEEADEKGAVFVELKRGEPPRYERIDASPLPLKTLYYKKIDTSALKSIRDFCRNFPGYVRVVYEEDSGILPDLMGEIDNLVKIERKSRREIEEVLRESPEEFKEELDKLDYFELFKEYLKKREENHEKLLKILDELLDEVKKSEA
# Chain of TmMre11:Rad50^NBD (TmMR^NBD catalytic head) (Thermotoga maritima, UniProt Q9X1X1, N64C/DEL191-685/I760C) (Q9X1X0 7-385 L7M): as the sequence (Q9X1X0 7-385 L7M, one chain of several) above
# Chain of TmMre11:Rad50^NBD (TmMR^NBD catalytic head) (Thermotoga maritima, UniProt Q9X1X1, N64C/DEL191-685/I760C) (Q9X1X1 1-190 N64C): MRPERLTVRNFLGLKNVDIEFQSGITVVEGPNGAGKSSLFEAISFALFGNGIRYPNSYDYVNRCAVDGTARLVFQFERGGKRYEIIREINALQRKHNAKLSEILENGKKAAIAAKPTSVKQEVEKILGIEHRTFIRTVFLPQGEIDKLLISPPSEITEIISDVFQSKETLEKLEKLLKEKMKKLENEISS
# Chain of TmMre11:Rad50^NBD (TmMR^NBD catalytic head) (Thermotoga maritima, UniProt Q9X1X1, N64C/DEL191-685/I760C) (Q9X1X1 686-852 I760C): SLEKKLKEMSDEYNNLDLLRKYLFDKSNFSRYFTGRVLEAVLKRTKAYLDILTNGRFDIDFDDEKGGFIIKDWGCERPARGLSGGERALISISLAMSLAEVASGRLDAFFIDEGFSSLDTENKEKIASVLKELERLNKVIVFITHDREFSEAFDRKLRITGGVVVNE
# Chain of TmMre11:Rad50^NBD (TmMR^NBD catalytic head) (Thermotoga maritima, UniProt Q9X1X1, DEL191-685/D804C/H830C, form not given) (Q9X1X0 7-385 L7M/F291S, form open, one chain of several, further chain): as the sequence (Q9X1X0 7-385 L7M, one chain of several) above, with F285S counted along it
# Chain of TmMre11:Rad50^NBD (TmMR^NBD catalytic head) (Thermotoga maritima, UniProt Q9X1X1, DEL191-685/D804C/H830C, form not given) (Q9X1X1 686-852 D804C/H830C, form open, one chain of several): as the sequence (Q9X1X1 686-852 I760C) above, with C75I, D119C, H145C counted along it
# Chain of TmMre11:Rad50^NBD (TmMR^NBD catalytic head) (Thermotoga maritima, UniProt Q9X1X1, DEL191-685/D804C/H830C) (Q9X1X1 686-852 D804C/H830C, one chain of several): as the sequence (Q9X1X1 686-852 I760C) above, with C75I, D119C, H145C counted along it
# Chain of TmMre11:Rad50^NBD (TmMR^NBD catalytic head) (Thermotoga maritima, UniProt Q9X1X1, DEL191-685/D804C/H830C) (Q9X1X0 7-385 L7M, one chain of several, further chain): as the sequence (Q9X1X0 7-385 L7M, one chain of several) above
molecule,measurement,setting,value
Nc1ncnc2c1ncn2[C@@H]1O[C@H](COP(=O)(O)OP(=O)(O)NP(=O)(O)O)[C@@H](O)[C@H]1O [AMPPNP],"SPR and EMSA, nucleotide-stimulated DNA binding",[1],SPR showed a strong effect of AMPPNP on dsDNA and hairpin DNA binding by TmMre11:Rad50^NBD
Nc1ncnc2c1ncn2[C@@H]1O[C@H](COP(=O)(O)OP(=O)(O)OP(=O)(O)O)[C@@H](O)[C@H]1O [ATP],ATPase activity,[2],Both proteins form a stoichiometric complex with ATPase as well as DNA binding activity
same,ATP-induced disulfide bond formation between Rad50 NBDs,[3],ATP induced formation of a disulfide bond between D804C and H830C
same,"reduced BMOE crosslinking of Mre11 dimer, SDS PAGE",[4],"ATP, AMPPNP and ATPγS reduced the ability of BMOE to crosslink Mre11 S110C dimers"
same,"ATP-dependent BMOE crosslinking of Rad50 NBDs, SDS PAGE",[5],"crosslink the two NBDs in the presence of ATP, but not in the absence of ATP"
same,ATP-induced disulfide bond formation between Rad50 NBDs,[6],we can now efficiently crosslink the NBDs by disulfide bond formation
Nc1ncnc2c1ncn2[C@@H]1O[C@H](COP(=O)(O)OP(=O)(O)OP(O)(O)=S)[C@@H](O)[C@H]1O [ATPγS],"SAXS, compaction of catalytic head (radius of gyration)",[7],Adding ATPγS indeed resulted in a substantial decrease of the radius of gyration (Rg)
B1,binding result,[8],binds
B2,binding result,[9],binds
B3,stoichiometry N,[10],2

# Source: publication PMC3071652 (Cell, 2011)
